# Test system: PC3 cells
# Experiment: xCELLigence RTCA real-time cell invasion assay (CIM plate, Matrigel) on PC3 prostate cancer cells
# Assay type: cell-based
# Details: Homo sapiens, PC-3, compound 25 uM to 1 uM, cell index monitored for 72 hours, four-parameter dose-response curve, read-out: IC50, Effect of compounds on the invention on prostate cancer cells
# Outline: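 PC3 invasion through 5% Matrigel-coated CIM-plate upper chambers was tracked as impedance cell index over 72 h. Compound at 25–1 µM was present in both chambers, with 3×10^4 cells seeded in serum-free RPMI. IC50 came from a four-parameter fit, and IC90 was derived from IC50 and the Hill slope.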
row,SMILES,IC50
1,"CC(=O)N1CCN(c2ccc(NC(=O)c3nn4c(-c5cn[nH]c5)cc(N5Cc6ccc(F)cc6C5)nc4c3C(C)C)cc2)CC1 [Compound 80, N-(4-(4-acetylpiperazin-1-yl)phenyl)-5-(5-fluoroisoindolin-2-yl)-3-isopropyl-7-(1H-pyrazol-4-yl)pyrazolo[1,5-a]pyrimidine-2-carboxamide]",1000 nM
2,"COc1cccc(NC(=O)c2nn3c(-c4cn[nH]c4)cc(N4Cc5ccc(Cl)cc5C4)nc3c2C(C)C)c1 [Compound 81, 5-(5-chloroisoindolin-2-yl)-3-isopropyl-N-(3-methoxyphenyl)-7-(1H-pyrazol-4-yl)pyrazolo[1,5-a]pyrimidine-2-carboxamide]",2450 nM
3,"CC(=O)Nc1cccc(NC(=O)c2nn3c(-c4cn[nH]c4)cc(N4Cc5ccc(Cl)cc5C4)nc3c2C(C)C)c1 [Compound 82, N-(3-acetamidophenyl)-5-(5-chloroisoindolin-2-yl)-3-isopropyl-7-(1H-pyrazol-4-yl)pyrazolo[1,5-a]pyrimidine-2-carboxamide]",2920 nM
4,"CC(=O)N1CCN(c2cccc(NC(=O)c3nn4c(-c5cn[nH]c5)cc(N5Cc6ccc(Cl)cc6C5)nc4c3C(C)C)c2)CC1 [Compound 83, N-(3-(4-acetylpiperazin-1-yl)phenyl)-5-(5-chloroisoindolin-2-yl)-3-isopropyl-7-(1H-pyrazol-4-yl)pyrazolo[1,5-a]pyrimidine-2-carboxamide]",10100 nM
5,"CC(=O)N1CCN(c2ccc(NC(=O)c3nn4c(-c5cn[nH]c5)cc(N5Cc6ccc(Cl)cc6C5)nc4c3C(C)C)cc2)CC1 [Compound 84, N-(4-(4-acetylpiperazin-1-yl)phenyl)-5-(5-chloroisoindolin-2-yl)-3-isopropyl-7-(1H-pyrazol-4-yl)pyrazolo[1,5-a]pyrimidine-2-carboxamide]",1100 nM
6,"COc1cccc(NC(=O)c2nn3c(-c4cn[nH]c4)cc(N4Cc5ccc(Cl)cc5C4)nc3c2C(C)(C)C)c1 [Compound 89, 3-(tert-butyl)-5-(5-chloroisoindolin-2-yl)-N-(3-methoxyphenyl)-7-(1H-pyrazol-4-yl)pyrazolo[1,5-a]pyrimidine-2-carboxamide]",3110 nM
7,"O=C(Nc1cccc(O)c1)c1nn2c(-c3cn[nH]c3)cc(N3Cc4ccccc4C3)nc2c1C1CC1 [Compound 94, 3-cyclopropyl-N-(3-hydroxyphenyl)-5-(isoindolin-2-yl)-7-(1H-pyrazol-4-yl)pyrazolo[1,5-a]pyrimidine-2-carboxamide]",6210 nM
8,"CC(=O)N1CCN(c2cccc(NC(=O)c3nn4c(-c5cn[nH]c5)cc(N5Cc6ccccc6C5)nc4c3C3CC3)c2)CC1 [Compound 95, N-(3-(4-acetylpiperazin-1-yl)phenyl)-3-cyclopropyl-5-(isoindolin-2-yl)-7-(1H-pyrazol-4-yl)pyrazolo[1,5-a]pyrimidine-2-carboxamide]",2120 nM
9,"COc1ccc(NC(=O)c2nn3c(-c4cn[nH]c4)cc(N4Cc5ccccc5C4)nc3c2C2CC2)cc1 [Compound 96, 3-cyclopropyl-5-(isoindolin-2-yl)-N-(4-methoxyphenyl)-7-(1H-pyrazol-4-yl)pyrazolo[1,5-a]pyrimidine-2-carboxamide]",6470 nM
10,"CC(=O)Nc1cccc(NC(=O)c2nn3c(-c4cn[nH]c4)cc(N4Cc5ccccc5C4)nc3c2C2CC2)c1 [Compound 97, N-(3-acetamidophenyl)-3-cyclopropyl-5-(isoindolin-2-yl)-7-(1H-pyrazol-4-yl)pyrazolo[1,5-a]pyrimidine-2-carboxamide]",1080 nM
11,"O=C(Nc1cccc(Cl)c1)c1nn2c(-c3cn[nH]c3)cc(N3Cc4ccccc4C3)nc2c1C1CC1 [Compound 98, N-(3-chlorophenyl)-3-cyclopropyl-5-(isoindolin-2-yl)-7-(1H-pyrazol-4-yl)pyrazolo[1,5-a]pyrimidine-2-carboxamide]",12500 nM
12,"CC(C)c1c(C(=O)Nc2cccc(O)c2)nn2c(-c3cn[nH]c3)cc(N3Cc4ccc(F)cc4C3)nc12 [Compound 99, 5-(5-fluoroisoindolin-2-yl)-N-(3-hydroxyphenyl)-3-isopropyl-7-(1H-pyrazol-4-yl)pyrazolo[1,5-a]pyrimidine-2-carboxamide]",1230 nM
13,"CC(C)c1c(C(=O)Nc2cccc(O)c2)nn2c(-c3cn[nH]c3)cc(N3Cc4ccc(Cl)cc4C3)nc12 [Compound 100, 5-(5-chloroisoindolin-2-yl)-N-(3-hydroxyphenyl)-3-isopropyl-7-(1H-pyrazol-4-yl)pyrazolo[1,5-a]pyrimidine-2-carboxamide]",2230 nM
14,"CC(C)c1c(C(=O)Nc2cccc(N3CCOCC3)c2)nn2c(-c3cn[nH]c3)cc(N3Cc4ccc(F)cc4C3)nc12 [Compound 101, 5-(5-fluoroisoindolin-2-yl)-3-isopropyl-N-(3-morpholinophenyl)-7-(1H-pyrazol-4-yl)pyrazolo[1,5-a]pyrimidine-2-carboxamide]",3990 nM
15,"COCCOc1ccc(NC(=O)c2nn3c(-c4cn[nH]c4)cc(N4Cc5ccc(F)cc5C4)nc3c2C(C)C)cc1 [Compound 102, 5-(5-fluoroisoindolin-2-yl)-3-isopropyl-N-(4-(2-methoxyethoxy)phenyl)-7-(1H-pyrazol-4-yl)pyrazolo[1,5-a]pyrimidine-2-carboxamide]",1270 nM

# Next, values leading:
row,IC50,SMILES
1,2890 nM,"CC(C)c1c(C(=O)Nc2ccc3cn[nH]c3c2)nn2c(-c3cn[nH]c3)cc(N3Cc4ccc(F)cc4C3)nc12 [Compound 104, 5-(5-fluoroisoindolin-2-yl)-N-(1H-indazol-6-yl)-3-isopropyl-7-(1H-pyrazol-4-yl)pyrazolo[1,5-a]pyrimidine-2-carboxamide]"
2,2020 nM,"CC(C)c1c(C(=O)Nc2ccc(N3CCOCC3)cc2)nn2c(-c3cn[nH]c3)cc(N3Cc4ccc(F)cc4C3)nc12 [Compound 106, 5-(5-fluoroisoindolin-2-yl)-3-isopropyl-N-(4-morpholinophenyl)-7-(1H-pyrazol-4-yl)pyrazolo[1,5-a]pyrimidine-2-carboxamide]"
3,2360 nM,"CC(C)c1c(C(=O)Nc2ccc(N3CCOCC3)cc2)nn2c(-c3cn[nH]c3)cc(N3Cc4ccc(Cl)cc4C3)nc12 [Compound 107, 5-(5-chloroisoindolin-2-yl)-3-isopropyl-N-(4-morpholinophenyl)-7-(1H-pyrazol-4-yl)pyrazolo[1,5-a]pyrimidine-2-carboxamide]"
4,18700 nM,"CC(C)c1c(C(=O)Nc2cccc(N3CCOCC3)c2)nn2c(-c3cn[nH]c3)cc(N3Cc4ccc(Cl)cc4C3)nc12 [Compound 108, 5-(5-chloroisoindolin-2-yl)-3-isopropyl-N-(3-morpholinophenyl)-7-(1H-pyrazol-4-yl)pyrazolo[1,5-a]pyrimidine-2-carboxamide]"
5,3230 nM,"COCCOc1ccc(NC(=O)c2nn3c(-c4cn[nH]c4)cc(N4Cc5ccc(Cl)cc5C4)nc3c2C(C)C)cc1 [Compound 109, 5-(5-chloroisoindolin-2-yl)-3-isopropyl-N-(4-(2-methoxyethoxy)phenyl)-7-(1H-pyrazol-4-yl)pyrazolo[1,5-a]pyrimidine-2-carboxamide]"
6,3150 nM,"CC(C)c1c(C(=O)Nc2ccc(OC3CCOCC3)cc2)nn2c(-c3cn[nH]c3)cc(N3Cc4ccc(Cl)cc4C3)nc12 [Compound 119, 5-(5-chloroisoindolin-2-yl)-3-isopropyl-7-(1H-pyrazol-4-yl)-N-(4-((tetrahydro-2H-pyran-4-yl)oxy)phenyl)pyrazolo[1,5-a]pyrimidine-2-carboxamide]"
7,4940 nM,"COc1ccc(F)c(NC(=O)c2nn3c(-c4cn[nH]c4)cc(N4Cc5ccc(Cl)cc5C4)nc3c2C(C)C)c1 [Compound 120, 5-(5-chloroisoindolin-2-yl)-N-(2-fluoro-5-methoxyphenyl)-3-isopropyl-7-(1H-pyrazol-4-yl)pyrazolo[1,5-a]pyrimidine-2-carboxamide]"
8,2750 nM,"CC(C)c1c(C(=O)Nc2cccc(OC3CCOCC3)c2)nn2c(-c3cn[nH]c3)cc(N3Cc4ccc(F)cc4C3)nc12 [Compound 121, 5-(5-fluoroisoindolin-2-yl)-3-isopropyl-7-(1H-pyrazol-4-yl)-N-(3-((tetrahydro-2H-pyran-4-yl)oxy)phenyl)pyrazolo[1,5-a]pyrimidine-2-carboxamide]"
9,9070 nM,"COc1cccc(NC(=O)c2nn3c(-c4cn[nH]c4)cc(N4Cc5ccc(F)cc5C4)nc3c2C(C)C)c1F [Compound 122, N-(2-fluoro-3-methoxyphenyl)-5-(5-fluoroisoindolin-2-yl)-3-isopropyl-7-(1H-pyrazol-4-yl)pyrazolo[1,5-a]pyrimidine-2-carboxamide]"
10,1020 nM,"CC(C)c1c(C(=O)Nc2ccc(OC3CCOCC3)cc2)nn2c(-c3cn[nH]c3)cc(N3Cc4ccc(F)cc4C3)nc12 [Compound 123, 5-(5-fluoroisoindolin-2-yl)-3-isopropyl-7-(1H-pyrazol-4-yl)-N-(4-((tetrahydro-2H-pyran-4-yl)oxy)phenyl)pyrazolo[1,5-a]pyrimidine-2-carboxamide]"
11,1150 nM,"COc1ccc(F)c(NC(=O)c2nn3c(-c4cn[nH]c4)cc(N4Cc5ccc(F)cc5C4)nc3c2C(C)C)c1 [Compound 124, N-(2-fluoro-5-methoxyphenyl)-5-(5-fluoroisoindolin-2-yl)-3-isopropyl-7-(1H-pyrazol-4-yl)pyrazolo[1,5-a]pyrimidine-2-carboxamide]"
12,7620 nM,"COc1cccc(NC(=O)c2nn3c(-c4cn[nH]c4)cc(N4Cc5cccc(F)c5C4)nc3c2C(C)C)c1 [Compound 125, 5-(4-fluoroisoindolin-2-yl)-3-isopropyl-N-(3-methoxyphenyl)-7-(1H-pyrazol-4-yl)pyrazolo[1,5-a]pyrimidine-2-carboxamide]"
13,1200 nM,"COc1cccc(NC(=O)c2nn3c(-c4cn[nH]c4)cc(N4Cc5cccc(Cl)c5C4)nc3c2C(C)C)c1 [Compound 126, 5-(4-chloroisoindolin-2-yl)-3-isopropyl-N-(3-methoxyphenyl)-7-(1H-pyrazol-4-yl)pyrazolo[1,5-a]pyrimidine-2-carboxamide]"

# From patent US12215112B2, “CD151 inhibitors” (ESFAM BIOTECH PTY LTD, priority 2020, dated 2025)
